Like-named read-outs stand apart in the source and are kept apart here.
Key:
[1] = test system: prothrombin fragments 1+2; settings: highest dose regimen, versus unfractionated heparin; cited from earlier work
[2] = biological target: factor Xa assembled in the prothrombinase complex (Factor Xa, Factor Va, calcium and phospholipid) (Homo sapiens, UniProt P00742); settings: cited from earlier work
acute coronary syndrome = settings: humans, recent clinical findings; cited from earlier work
models of thrombosis = settings: rodent, canine and porcine models; cited from earlier work
free factor Xa = free factor Xa (Homo sapiens, UniProt P00742); settings: cited from earlier work
free factor Xa, sequence (P00742 235-488 limits assumed): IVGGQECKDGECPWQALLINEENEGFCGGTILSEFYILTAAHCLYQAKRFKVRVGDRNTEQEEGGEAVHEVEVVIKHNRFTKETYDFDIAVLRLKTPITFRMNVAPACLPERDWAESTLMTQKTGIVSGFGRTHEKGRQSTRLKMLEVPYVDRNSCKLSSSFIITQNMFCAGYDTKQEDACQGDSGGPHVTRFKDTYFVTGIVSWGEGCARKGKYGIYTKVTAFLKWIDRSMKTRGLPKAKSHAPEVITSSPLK
free factor Xa, sequence (P00742 41-179 partner limits assumed): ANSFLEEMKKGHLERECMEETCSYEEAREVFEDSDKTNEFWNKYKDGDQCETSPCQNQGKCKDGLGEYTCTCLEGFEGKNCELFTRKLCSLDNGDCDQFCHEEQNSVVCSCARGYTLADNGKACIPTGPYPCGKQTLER

factor Xa = biological target: T1, factor Xa (Homo sapiens, UniProt P00742); settings: patients with stable coronary artery disease on usual comedication, some with mild renal impairment; cited from earlier work
T1 construct: from tissue; host or cells: blood of patients (in vivo; result quoted from Hinder et al. 2006)
T1 sequence (P00742 235-488 limits assumed): as the sequence (P00742 235-488 limits assumed) above
T1 sequence (P00742 41-179 partner limits assumed): as the sequence (P00742 41-179 partner limits assumed) above

[3] = for hygroscopicity (absorption or adsorption of water molecules from the surrounding environment): result in words
Protocol: Moreover, crystalline benzoic acid salt of Formula I may also be characterized by its dynamic vapor sorption (DVS) water vapor sorption and desorption isotherms measured at 25° C. Before starting the sorption cycle the crystalline salt of Formula I sample is treated with dry nitrogen gas.
Moisture sorption/desorption isotherms were recorded on a DVS-1000 from Surface Measurement Systems. […] Typical total measurement times for both cycles were about 20 to 30 hours.

factor Xa assembled in the prothrombinase complex (Factor Xa, Factor Va, calcium and phospholipid), sequence (P00742 235-488 limits assumed): as the sequence (P00742 235-488 limits assumed) above
factor Xa assembled in the prothrombinase complex (Factor Xa, Factor Va, calcium and phospholipid), sequence (P00742 41-179 partner limits assumed): as the sequence (P00742 41-179 partner limits assumed) above
factor Xa assembled in the prothrombinase complex (Factor Xa, Factor Va, calcium and phospholipid), sequence (P12259 29-737 partner limits assumed): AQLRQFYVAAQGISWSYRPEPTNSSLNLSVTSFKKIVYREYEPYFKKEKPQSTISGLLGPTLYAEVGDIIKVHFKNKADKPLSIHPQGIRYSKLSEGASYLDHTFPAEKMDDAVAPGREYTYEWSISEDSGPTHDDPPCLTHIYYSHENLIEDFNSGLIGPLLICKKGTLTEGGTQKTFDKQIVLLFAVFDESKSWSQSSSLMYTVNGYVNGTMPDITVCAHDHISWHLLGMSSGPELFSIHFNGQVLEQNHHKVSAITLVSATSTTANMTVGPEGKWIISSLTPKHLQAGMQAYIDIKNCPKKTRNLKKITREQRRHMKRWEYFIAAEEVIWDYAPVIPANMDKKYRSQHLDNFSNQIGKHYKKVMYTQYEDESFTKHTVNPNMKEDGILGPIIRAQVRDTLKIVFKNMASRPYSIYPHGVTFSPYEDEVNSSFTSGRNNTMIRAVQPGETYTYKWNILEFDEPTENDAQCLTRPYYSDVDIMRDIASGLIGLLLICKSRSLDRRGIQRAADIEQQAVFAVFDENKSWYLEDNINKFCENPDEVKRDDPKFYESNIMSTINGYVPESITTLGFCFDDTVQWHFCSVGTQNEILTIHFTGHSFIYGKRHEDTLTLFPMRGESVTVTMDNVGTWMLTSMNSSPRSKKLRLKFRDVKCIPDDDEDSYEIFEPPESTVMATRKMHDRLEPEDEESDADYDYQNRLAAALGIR
factor Xa assembled in the prothrombinase complex (Factor Xa, Factor Va, calcium and phospholipid), sequence (P12259 1574-2224 partner limits assumed): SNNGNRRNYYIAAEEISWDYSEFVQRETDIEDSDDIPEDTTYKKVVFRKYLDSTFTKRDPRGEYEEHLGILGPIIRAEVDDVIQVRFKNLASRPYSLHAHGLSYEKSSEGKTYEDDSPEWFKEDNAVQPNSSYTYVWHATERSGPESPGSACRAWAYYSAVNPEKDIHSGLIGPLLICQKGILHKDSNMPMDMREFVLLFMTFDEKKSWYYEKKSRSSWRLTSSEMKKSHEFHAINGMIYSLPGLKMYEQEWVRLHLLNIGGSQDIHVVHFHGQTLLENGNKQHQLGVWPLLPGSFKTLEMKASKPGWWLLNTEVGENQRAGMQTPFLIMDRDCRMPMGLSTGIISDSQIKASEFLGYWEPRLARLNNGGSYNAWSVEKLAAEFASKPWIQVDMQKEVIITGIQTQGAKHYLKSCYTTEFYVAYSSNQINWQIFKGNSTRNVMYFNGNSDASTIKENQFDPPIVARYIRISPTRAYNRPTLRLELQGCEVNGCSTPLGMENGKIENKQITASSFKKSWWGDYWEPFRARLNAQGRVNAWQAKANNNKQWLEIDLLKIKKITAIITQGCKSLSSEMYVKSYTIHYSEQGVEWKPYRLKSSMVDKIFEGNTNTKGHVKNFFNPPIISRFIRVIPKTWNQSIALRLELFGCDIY

## COC(=O)[C@H](Cc1cccc(C(=N)N)c1)[C@@H](C)NC(=O)c1ccc(-c2cc[n+]([O-])cc2)cc1 (mixture of isomers) [Otamixaban, Methyl(2R,3R)-2-{3-[amino(imino)methyl]benzyl}-3-{[4-(1-oxidopyridin-4-yl)benzoyl]amino}butanoate]
[1]
  reduction of prothrombin fragments 1+2: reduced prothrombin fragments 1+2 significantly more than unfractionated heparin
[2]
  inhibition of factor Xa assembled in the prothrombinase complex: inhibited
Acute coronary syndrome
  clinical efficacy: efficacious
  clinical safety and tolerability: safe and well tolerated
Models of thrombosis
  efficacy in models of thrombosis: highly efficacious
Free factor Xa
  inhibition of free factor Xa: inhibited
Factor Xa
  factor Xa inhibition in patients: dose-dependent, rapid direct factor Xa inhibition

## CCC(C)O.COC(=O)[C@H](Cc1cccc(C(=N)N)c1)[C@@H](C)NC(=O)c1ccc(-c2cc[n+]([O-])cc2)cc1.COC(=O)[C@H](Cc1cccc(C(=N)N)c1)[C@@H](C)NC(=O)c1ccc(-c2cc[n+]([O-])cc2)cc1.Cl.Cl [Methyl(2R,3R)-2-{3-[amino(imino)methyl]benzyl}-3-{[4-(1-oxidopyridin-4-yl)benzoyl]amino}butanoate monohydrochloride-hemi-2-butanol-solvate]
[3]; Cycle 1, Target RH 0.0%
  Change In Mass (%) Desorption: 0.35%
  Change In Mass (%) Sorption: 0.00%
[3]; Cycle 1, Target RH 10.0%
  Change In Mass (%) Desorption: 3.33%
  Change In Mass (%) Hysteresis: 2.54%
  Change In Mass (%) Sorption: 0.79%
[3]; Cycle 1, Target RH 20.0%
  Change In Mass (%) Desorption: 5.29%
  Change In Mass (%) Hysteresis: 4.01%
  Change In Mass (%) Sorption: 1.28%
[3]; Cycle 1, Target RH 40.0%
  Change In Mass (%) Desorption: 7.14%
  Change In Mass (%) Hysteresis: 4.91%
  Change In Mass (%) Sorption: 2.22%
[3]; Cycle 1, Target RH 60.0%
  Change In Mass (%) Desorption: 9.78%
  Change In Mass (%) Hysteresis: 6.09%
  Change In Mass (%) Sorption: 3.69%
[3]; Cycle 1, Target RH 80.0%
  Change In Mass (%) Desorption: 16.92%
  Change In Mass (%) Hysteresis: −0.87%
  Change In Mass (%) Sorption: 17.79%
[3]; Cycle 1, Target RH 90.0%
  Change In Mass (%) Desorption: 26.07%
  Change In Mass (%) Hysteresis: −0.59%
  Change In Mass (%) Sorption: 26.66%
[3]; Cycle 1, Target RH 95.0%
  Change In Mass (%) Desorption: 34.13%
  Change In Mass (%) Sorption: 34.13%
[3]; Cycle 2, Target RH 0.0%
  Change In Mass (%) Desorption: 0.34%
  Change In Mass (%) Sorption: 0.35%
[3]; Cycle 2, Target RH 10.0%
  Change In Mass (%) Desorption: 3.17%
  Change In Mass (%) Hysteresis: 2.48%
  Change In Mass (%) Sorption: 0.69%
[3]; Cycle 2, Target RH 20.0%
  Change In Mass (%) Desorption: 4.97%
  Change In Mass (%) Hysteresis: 3.65%
  Change In Mass (%) Sorption: 1.32%
[3]; Cycle 2, Target RH 40.0%
  Change In Mass (%) Desorption: 6.78%
  Change In Mass (%) Hysteresis: 4.11%
  Change In Mass (%) Sorption: 2.67%
[3]; Cycle 2, Target RH 60.0%
  Change In Mass (%) Desorption: 9.41%
  Change In Mass (%) Hysteresis: 4.84%
  Change In Mass (%) Sorption: 4.57%
[3]; Cycle 2, Target RH 80.0%
  Change In Mass (%) Desorption: 16.37%
  Change In Mass (%) Hysteresis: 2.94%
  Change In Mass (%) Sorption: 13.43%
[3]; Cycle 2, Target RH 90.0%
  Change In Mass (%) Desorption: 25.32%
  Change In Mass (%) Hysteresis: 1.41%
  Change In Mass (%) Sorption: 23.91%
[3]; Cycle 2, Target RH 95.0%
  Change In Mass (%) Desorption: 32.86%
  Change In Mass (%) Sorption: 32.86%
[3]
  hygroscopicity (absorption or adsorption of water molecules from the surrounding environment): hygroscopic

## COC(=O)[C@H](Cc1cccc(C(=N)N)c1)[C@@H](C)NC(=O)c1ccc(-c2cc[n+]([O-])cc2)cc1.O=C(O)c1ccccc1 [benzoic acid salt of methyl(2R,3R)-2-{3-[amino(imino)methyl]benzyl}-3-{[4-(1-oxidopyridin-4-yl)benzoyl]amino}butanoate]
[3]; Cycle 1, Target RH 0.0%
  Change In Mass (%) Desorption: −0.035%
  Change In Mass (%) Sorption: 0.000%
[3]; Cycle 1, Target RH 10.0%
  Change In Mass (%) Desorption: 0.215%
  Change In Mass (%) Hysteresis: 0.119%
  Change In Mass (%) Sorption: 0.096%
[3]; Cycle 1, Target RH 20.0%
  Change In Mass (%) Desorption: 0.326%
  Change In Mass (%) Hysteresis: 0.146%
  Change In Mass (%) Sorption: 0.180%
[3]; Cycle 1, Target RH 40.0%
  Change In Mass (%) Desorption: 0.534%
  Change In Mass (%) Hysteresis: 0.172%
  Change In Mass (%) Sorption: 0.363%
[3]; Cycle 1, Target RH 60.0%
  Change In Mass (%) Desorption: 0.810%
  Change In Mass (%) Hysteresis: 0.214%
  Change In Mass (%) Sorption: 0.596%
[3]; Cycle 1, Target RH 80.0%
  Change In Mass (%) Desorption: 1.300%
  Change In Mass (%) Hysteresis: 0.374%
  Change In Mass (%) Sorption: 0.926%
[3]; Cycle 1, Target RH 90.0%
  Change In Mass (%) Desorption: 1.697%
  Change In Mass (%) Hysteresis: 0.290%
  Change In Mass (%) Sorption: 1.408%
[3]; Cycle 1, Target RH 95.0%
  Change In Mass (%) Desorption: 2.031%
  Change In Mass (%) Sorption: 2.031%
[3]; Cycle 2, Target RH 0.0%
  Change In Mass (%) Desorption: −0.056%
  Change In Mass (%) Sorption: −0.035%
[3]; Cycle 2, Target RH 10.0%
  Change In Mass (%) Desorption: 0.198%
  Change In Mass (%) Hysteresis: 0.089%
  Change In Mass (%) Sorption: 0.109%
[3]; Cycle 2, Target RH 20.0%
  Change In Mass (%) Desorption: 0.310%
  Change In Mass (%) Hysteresis: 0.084%
  Change In Mass (%) Sorption: 0.226%
[3]; Cycle 2, Target RH 40.0%
  Change In Mass (%) Desorption: 0.523%
  Change In Mass (%) Hysteresis: 0.062%
  Change In Mass (%) Sorption: 0.461%
[3]; Cycle 2, Target RH 60.0%
  Change In Mass (%) Desorption: 0.800%
  Change In Mass (%) Hysteresis: 0.058%
  Change In Mass (%) Sorption: 0.742%
[3]; Cycle 2, Target RH 80.0%
  Change In Mass (%) Desorption: 1.299%
  Change In Mass (%) Hysteresis: 0.058%
  Change In Mass (%) Sorption: 1.241%
[3]; Cycle 2, Target RH 90.0%
  Change In Mass (%) Desorption: 1.687%
  Change In Mass (%) Hysteresis: 0.071%
  Change In Mass (%) Sorption: 1.616%
[3]; Cycle 2, Target RH 95.0%
  Change In Mass (%) Desorption: 1.999%
  Change In Mass (%) Sorption: 1.999%
[3]; at 80% RH
  water uptake (DVS): 1.1%
[3]; at 95% RH
  water uptake (DVS): 2.0%
[3]
  hygroscopicity (absorption or adsorption of water molecules from the surrounding environment): favorable reduced absorption or adsorption of water molecules
